Data reported in PubChem BioAssay (NCI).
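These data come from cells grown in 96-well plates and exposed to compound for 48 hours at five concentrations. Abbreviation: GI50, concentration required for 50% inhibition of growth. At the TGI there is no net growth.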

Legend:
Test in all cases: growth of human tumour cells (NCI), 48 h; in the data active = GI50 below about 0.43 µM; inactive = the rest
786-0 renal = system: 786-0 renal
A498 renal = system: A498 renal
A549 NSCLC = system: A549 NSCLC
ACHN renal = system: ACHN renal
BT-549 breast = system: BT-549 breast
CAKI-1 renal = system: CAKI-1 renal
CCRF-CEM leukemia = system: CCRF-CEM leukemia
COLO 205 colon = system: COLO 205 colon
DU-145 prostate = system: DU-145 prostate
EKVX NSCLC = system: EKVX NSCLC
HCC-2998 colon = system: HCC-2998 colon
HCT-116 colon = system: HCT-116 colon
HCT-15 colon = system: HCT-15 colon
HL-60(TB) leukemia = system: HL-60(TB) leukemia
HOP-62 NSCLC = system: HOP-62 NSCLC
HOP-92 NSCLC = system: HOP-92 NSCLC
HS 578T breast = system: HS 578T breast
HT29 colon = system: HT29 colon
IGROV1 ovarian = system: IGROV1 ovarian
K-562 leukemia = system: K-562 leukemia
KM12 colon = system: KM12 colon
LOX IMVI melanoma = system: LOX IMVI melanoma
M14 melanoma = system: M14 melanoma
MALME-3M melanoma = system: MALME-3M melanoma
MCF7 breast = system: MCF7 breast
MDA-MB-231 breast = system: MDA-MB-231 breast
MDA-MB-435 = system: MDA-MB-435
MOLT-4 leukemia = system: MOLT-4 leukemia
NCI-H226 lung = system: NCI-H226 lung
NCI-H23 lung = system: NCI-H23 lung
NCI-H460 lung = system: NCI-H460 lung
NCI-H522 lung = system: NCI-H522 lung
NCI/ADR-RES ovarian = system: NCI/ADR-RES ovarian
OVCAR-3 ovarian = system: OVCAR-3 ovarian
OVCAR-4 ovarian = system: OVCAR-4 ovarian
OVCAR-5 ovarian = system: OVCAR-5 ovarian
OVCAR-8 ovarian = system: OVCAR-8 ovarian
PC-3 prostate = system: PC-3 prostate
RPMI-8226 leukemia = system: RPMI-8226 leukemia
RXF 393 renal = system: RXF 393 renal
SF-268 CNS = system: SF-268 CNS
SF-295 CNS = system: SF-295 CNS
SF-539 CNS = system: SF-539 CNS
SK-MEL-2 melanoma = system: SK-MEL-2 melanoma
SK-MEL-28 melanoma = system: SK-MEL-28 melanoma
SK-MEL-5 melanoma = system: SK-MEL-5 melanoma
SK-OV-3 ovarian = system: SK-OV-3 ovarian
SN12C renal = system: SN12C renal
SNB-19 CNS = system: SNB-19 CNS
SNB-75 CNS = system: SNB-75 CNS
SW-620 colon = system: SW-620 colon
T-47D breast = system: T-47D breast
TK-10 renal = system: TK-10 renal
U251 CNS = system: U251 CNS
UACC-257 melanoma = system: UACC-257 melanoma
UACC-62 melanoma = system: UACC-62 melanoma
UO-31 renal = system: UO-31 renal

CC(=O)/C(=C\c1c(-c2ccccc2)[nH]c2ccccc12)S(C)(=O)=O
15.5 µM: TGI (DU-145 prostate)
33.9 µM: TGI (HCC-2998 colon)
10.7 µM: TGI (NCI-H460 lung)
21.9 µM: TGI (RPMI-8226 leukemia)
> 25.7 µM: TGI (NCI-H522 lung)
> 43.5 µM: TGI (HOP-62 NSCLC)
> 43 µM: TGI (SK-MEL-5 melanoma)
> 100 µM: TGI (A549 NSCLC) | TGI (ACHN renal) | TGI (BT-549 breast) | TGI (CAKI-1 renal) | TGI (CCRF-CEM leukemia) | TGI (EKVX NSCLC) | TGI (HCT-116 colon) | TGI (HCT-15 colon) | TGI (K-562 leukemia) | TGI (MALME-3M melanoma) | TGI (MCF7 breast) | TGI (MOLT-4 leukemia) | TGI (NCI-H226 lung) | TGI (NCI-H23 lung) | TGI (OVCAR-4 ovarian) | TGI (OVCAR-5 ovarian) | TGI (OVCAR-8 ovarian) | TGI (PC-3 prostate) | TGI (SK-MEL-28 melanoma) | TGI (SN12C renal) | TGI (SW-620 colon) | TGI (TK-10 renal) | TGI (UACC-257 melanoma) | TGI (UACC-62 melanoma) | TGI (UO-31 renal)
26 µM: TGI (T-47D breast)
8.97 µM: TGI (NCI/ADR-RES ovarian)
> 66.3 µM: TGI (LOX IMVI melanoma)
> 58.7 µM: TGI (SNB-19 CNS)
> 75 µM: TGI (HOP-92 NSCLC)
13.5 µM: TGI (COLO 205 colon)
> 54.9 µM: TGI (IGROV1 ovarian)
20.9 µM: TGI (HL-60(TB) leukemia)
inactive: GI50 (786-0 renal) 3.44 µM | GI50 (A498 renal) 3.88 µM | GI50 (A549 NSCLC) 7.14 µM | GI50 (ACHN renal) 5.64 µM | GI50 (BT-549 breast) 2.77 µM | GI50 (CAKI-1 renal) 5.62 µM | GI50 (CCRF-CEM leukemia) 4.74 µM | GI50 (COLO 205 colon) 2.7 µM | GI50 (DU-145 prostate) 3.47 µM | GI50 (EKVX NSCLC) 6.34 µM | GI50 (HCC-2998 colon) 6.61 µM | GI50 (HCT-116 colon) 2.86 µM | GI50 (HCT-15 colon) 1.93 µM | GI50 (HL-60(TB) leukemia) 3.51 µM | GI50 (HOP-62 NSCLC) 7.95 µM | GI50 (HOP-92 NSCLC) 3.11 µM | GI50 (HS 578T breast) 1.55 µM | GI50 (HT29 colon) 1.6 µM | GI50 (IGROV1 ovarian) 6.88 µM | GI50 (K-562 leukemia) 0.671 µM | GI50 (KM12 colon) 2.42 µM | GI50 (LOX IMVI melanoma) 3.36 µM | GI50 (M14 melanoma) 1.64 µM | GI50 (MALME-3M melanoma) 4.72 µM | GI50 (MCF7 breast) 2.66 µM | GI50 (MDA-MB-231 breast) 4.82 µM | GI50 (MOLT-4 leukemia) 4.24 µM | GI50 (NCI-H226 lung) 13 µM | GI50 (NCI-H23 lung) 4 µM | GI50 (NCI-H460 lung) 2.78 µM | GI50 (NCI-H522 lung) 3.27 µM | GI50 (NCI/ADR-RES ovarian) 1.8 µM | GI50 (OVCAR-3 ovarian) 2.33 µM | GI50 (OVCAR-4 ovarian) 3.71 µM | GI50 (OVCAR-5 ovarian) 13.9 µM | GI50 (OVCAR-8 ovarian) 5.09 µM | GI50 (PC-3 prostate) 4.46 µM | GI50 (RPMI-8226 leukemia) 2.95 µM | GI50 (RXF 393 renal) 2.56 µM | GI50 (SF-268 CNS) 4.14 µM | GI50 (SF-295 CNS) 3.85 µM | GI50 (SF-539 CNS) 1.89 µM | GI50 (SK-MEL-2 melanoma) 5.19 µM | GI50 (SK-MEL-28 melanoma) 3.34 µM | GI50 (SK-MEL-5 melanoma) 1.87 µM | GI50 (SK-OV-3 ovarian) 3.96 µM | GI50 (SN12C renal) 6.06 µM | GI50 (SNB-19 CNS) 3.3 µM | GI50 (SNB-75 CNS) 1.45 µM | GI50 (SW-620 colon) 2.08 µM | GI50 (T-47D breast) 2.58 µM | GI50 (TK-10 renal) 8.21 µM | GI50 (U251 CNS) 2.79 µM | GI50 (UACC-257 melanoma) 24.1 µM | GI50 (UACC-62 melanoma) 3.17 µM | GI50 (UO-31 renal) 5.3 µM
> 73.9 µM: TGI (MDA-MB-231 breast)
> 24.2 µM: TGI (SK-MEL-2 melanoma)
4.88 µM: TGI (HS 578T breast)
> 54.8 µM: TGI (A498 renal)
> 61.4 µM: TGI (SF-295 CNS)
> 32.5 µM: TGI (SK-OV-3 ovarian)
active: GI50 (MDA-MB-435) 0.313 µM
> 63 µM: TGI (U251 CNS)
> 35.8 µM: TGI (786-0 renal)
> 93.9 µM: TGI (SF-268 CNS)
5.2 µM: TGI (SNB-75 CNS)
19.2 µM: TGI (KM12 colon)
5.58 µM: TGI (M14 melanoma)
4.66 µM: TGI (SF-539 CNS)
5.35 µM: TGI (OVCAR-3 ovarian)
> 40.1 µM: TGI (HT29 colon)
8.54 µM: TGI (RXF 393 renal)
1.97 µM: TGI (MDA-MB-435)
